According to patent US20230371507A1 (priority 2020, published 2023):
Like-named read-outs stand apart in the source and are kept apart here.

Legend:
[1] = test system: Puccinia triticina strain BT06M215; assay: in planta intensity of infection of wheat leaves by Puccinia triticina; type: in vivo
Excerpt: This experiment illustrates the effect of the crude extract (YE) of P. aphidis, synthetic (E)-2-octyl-2-pentenedioic acid (PA), extracted 2-octyl-2 pentenedioic acid from Pseudozyma aphidis in methanol, Rhapsody® (Bacillus subtilis) and Amistart (azoxystrobin) at 0.1% on the intensity of infection of wheat leaf fragments by uredospores of Puccinia triticina strain BT06M215. Rhapsody® (Bacillus subtilis) and Amistar® (azoxystrobin) are commercially available fungicidal solutions. P. titicina strain BT06M215 was isolated from untreated wheat leaves in France.
All fungicidal products were prepared in a volume of water corresponding to 200 L/ha. […]
For each experimental condition tested, 18 replicates of one wheat leaf were tested. […] Disease assessment (intensity of infection) on the first leaf of each wheat plantlets is monitored at 8 to 15 days post inoculation.

P. infestans = type: cell-based, Phytophthora infestans
[2] = test system: Phytophthora infestans strain Pi61; type: in vivo; details: in methanol, applied at 150 g/ha; Shirlan applied at 200 g/ha (FIGS. 10a, 10b)
[3] = test system: Zymoseptoria tritici strain Mg Tri-R6; type: in vivo; details: wheat; in methanol, applied at 100 gr/ha; Proline applied at 0.8 L/ha (FIGS. 7a, 7b)
B. cinerea [4] = assay: bio-assay in liquid medium (PDB) with B. cinerea as indicator strain; type: cell-based, Botrytis cinerea; details: at both a pH of 3 and a pH of 5 (FIG. 1)
Protocol: 2-octyl-2 pentenedioic acid was also evaluated for antifungal activity using bio-assay in liquid medium using B. cinerea as an indicator strain. The bio-assay was carried out in PDB liquid medium.
The bio-assay for determination of antifungal activity was set-up based on the procedure as described in Stammler and Speakman, 2006. Microtiter Method to Test the Sensitivity of Botrytis cinerea to Boscalid. Journal of Phytopathology, 154, 7-8, p 508-510. This bio-assay is based on dilution of the antimicrobial agent and determination of growth inhibition of a sensitive indicator strain, in this case Botrytis cinerea. The bio-assay was performed in 96-well microtiter plates and included micro-dilutions of the antimicrobial agent in a liquid growth medium, where each well was inoculated with a standardized number of fungal spores of the indicator strain. After incubation (no agitation, 18° C. in darkness for 5 days), the results were obtained by measurement of fungal growth by photometer at 405 nm and the values were corrected by comparison with the blanks (cultures without the antimicrobial compound). The ED (effective dose) values are compared with reference standard fungicides.

B. cinerea [5] = assay: bio-assay with tomato leaves against B. cinerea; type: in vivo, Botrytis cinerea
Excerpt: The untreated control (#2, only 70% ethanol) was taken as a reference for the maximal infection rate.

Which “efficacy against Puccinia triticina compared to Rhapsody” value ([1]; Rhapsody applied at 2.0 L/ha (FIGS. 3a, 3b)) does the source give for `CCCCCCCC/C(=C\CC(=O)O)C(=O)O` [2-octyl-2 pentenedioic acid (synthetic), (E)-2-octyl-2-pentenedioic acid] here?
The value was “comparable efficacy”.

And the ED90 (P. infestans; pH 4.6, V8 juice liquid media)?
The ED90 was 41 ppm.

And the ED90 (P. infestans; pH 6.2, V8 juice liquid media)?
The ED90 was 42 ppm.

And the ED90 (P. infestans; pH 8.0, V8 juice liquid media)?
Its ED90 is “Not detected”.

What about the “efficacy against Phytophthora infestans compared to Shirlan (fluazinam)” value [2] of the same molecule?
Its value is “comparable efficacy”.

What does the source list for `CCCCCCCCC(=CCC(=O)O)C(=O)O` [2-octyl-2 pentenedioic acid]?
efficacy against Zymoseptoria tritici compared to Proline [3]: comparable efficacy; efficacy against Puccinia triticina compared to Amistar ([1]; in methanol, applied at 100 g/ha, Amistar applied at 1 L/ha (FIGS. 4a, 4b)): comparable efficacy; ED90 (P. infestans; pH 4.6, V8 juice liquid media): 37 ppm; ED90 (P. infestans; pH 6.2, V8 juice liquid media): 41 ppm; ED90 (P. infestans; pH 8.0, V8 juice liquid media): Not detected; efficacy against B. cinerea (B. cinerea [4]): excellent efficacy

`CC(=O)O` [Sample 3, Acetic acid] was tested. Which “effect on B. cinerea infection (in words)” value (B. cinerea [5]) did it give?
The value was “inhibited B. cinerea infection”.
